Results published in patent US9393329B2, “N-alkoxyamide conjugates as imaging agents” (Lantheus Medical Imaging, Inc., priority 2009, dated 2016).

Columns and labels:
[1] = tested on: aorta bearing atherosclerotic plaque; assay: Ex-vivo blood vessel binding assay; design: species or system New Zealand white rabbits; conditions: 153Gd-labeled compound 0.135 μCi in phosphate buffered saline, plaque-bearing rabbit aorta sections, 2 h at 37° C., washed; percentage of initial activity
Method: Aorta bearing atherosclerotic plaque was obtained from New Zealand white rabbits that were balloon stripped along the abdominal aorta and placed on a high fat diet (0.5% cholesterol) for 16-22 weeks. Vascular injury was produced with a 4-F Fogarty catheter along the abdominal aorta and right iliofemoral artery. This procedure generates an accelerated complex lesion development with a lipid rich core covered by a fibrous cap in rabbits. Harvested aorta sections (0.5 cm) were incubated with 0.135 μCi of ^153Gd-labeled compound diluted in phosphate buffered saline (450 μL) for 2 h at 37° C. The supernatant was removed and analyzed by HPLC to assay compound stability. The tissue section was then washed with phosphate buffered saline (3×10 mL), then resuspended (10 mL) and incubated at 37° C. an additional 1 h. The supernatant was then removed, the washing process repeated and the tissue finally counted on a gamma counter. The amount of compound bound to the tissue was determined as a percentage of the initial activity according to the following formula: […]

[2] = tested on: aorta of apolipoprotein E (ApoE) knockout mouse; assay: In-vivo ApoE mouse aorta uptake studies; conditions: ApoE knockout mice on high-fat diet, 0.3-0.4 mCi/kg bolus via tail vein; for aorta:blood / aorta:heart: 60 min, ratio; for aorta uptake (% ID/g): tissue harvested at 60 min
Method: Mice were fed a high-fat diet to accelerate plaque formation and compounds were tested in the mice between 35-42 weeks on diet. Test compounds were administered at 0.3-0.4 mCi/kg to anesthetized mice in a single, bolus injection via the tail vein. Blood samples were collected via the tail between 0-30 min post injection for pharmacokinetic analysis and mice were euthanized by CO2 at 60 min for tissue harvesting. The aorta was first flushed with saline through the left ventricle exiting via the femoral vein then removed from the heart to the renal bifurcation; additional biological samples were also collected (blood, muscle, liver, kidney, bile, urine, heart, femur, reproductive organ, lung, spleen and innominate artery). All samples were weighed and assayed for radioactivity; uptake is expressed as a percentage of injected dose per gram of tissue (% ID/g).

| % bound [1] | aorta:blood [2] | aorta:heart [2] | aorta uptake (% ID/g) [2] | Compound |
| --- | --- | --- | --- | --- |
| 6.9% | 2.0 | 9.2 | 6.1 ± 1.2 % ID/g | CONC(=O)[C@@H](CCc1ccccc1)NCc1ccc(CNC(=O)CN2CCN(CC(=O)[O-])CCN(CC(=O)[O-])CCN(CC(=O)[O-])CC2)cc1.[153Gd+3] [Example 52] |
|  | 0.8 | 4.2 | 1.5 ± 0.1 % ID/g | O=C([O-])CN1CCN(CC(=O)[O-])CCN(CC(=O)NCc2ccc(CN[C@H](CCc3ccccc3)C(=O)NOCc3ccccc3)cc2)CCN(CC(=O)[O-])CC1.[153Gd+3] [Example 53] |
|  | 1.2 | 5.3 | 2.5 ± 0.5 % ID/g | CONC(=O)C(N)Cc1ccc(CNC(=O)CN2CCN(CC(=O)[O-])CCN(CC(=O)[O-])CCN(CC(=O)[O-])CC2)cc1.[153Gd+3] (stereo not shown) [Example 54] |
|  | 1.0 | 8.8 | 3.0 ± 2.3 % ID/g | NC(Cc1ccc(CNC(=O)CN2CCN(CC(=O)[O-])CCN(CC(=O)[O-])CCN(CC(=O)[O-])CC2)cc1)C(=O)NOCc1ccccc1.[153Gd+3] (stereo not shown) [Example 55] |
